Data from publication PMC7506137, “Selective Phosphodiesterase 1 Inhibitor BTTQ Reduces Blood Pressure in Spontaneously Hypertensive and Dahl Salt Sensitive Rats: Role of Peripheral Vasodilation” (Frontiers in Physiology, 2020).
Several values for one entry are separate records, joined by “and”; a condition that tells them apart may be missing. Equal entries are not always repeated.

Key:
Experiment in all cases: PDE scintillation proximity enzyme assay
Type in all cases: biochemical
Conditions in all cases: geometric mean (SD, n)
[1] = target: T1, Human PDE1A (Homo sapiens, UniProt P54750)
T1 construct: made in house; host or cells: baculovirus-infected insect cells
T1 sequence (P54750 whole entry): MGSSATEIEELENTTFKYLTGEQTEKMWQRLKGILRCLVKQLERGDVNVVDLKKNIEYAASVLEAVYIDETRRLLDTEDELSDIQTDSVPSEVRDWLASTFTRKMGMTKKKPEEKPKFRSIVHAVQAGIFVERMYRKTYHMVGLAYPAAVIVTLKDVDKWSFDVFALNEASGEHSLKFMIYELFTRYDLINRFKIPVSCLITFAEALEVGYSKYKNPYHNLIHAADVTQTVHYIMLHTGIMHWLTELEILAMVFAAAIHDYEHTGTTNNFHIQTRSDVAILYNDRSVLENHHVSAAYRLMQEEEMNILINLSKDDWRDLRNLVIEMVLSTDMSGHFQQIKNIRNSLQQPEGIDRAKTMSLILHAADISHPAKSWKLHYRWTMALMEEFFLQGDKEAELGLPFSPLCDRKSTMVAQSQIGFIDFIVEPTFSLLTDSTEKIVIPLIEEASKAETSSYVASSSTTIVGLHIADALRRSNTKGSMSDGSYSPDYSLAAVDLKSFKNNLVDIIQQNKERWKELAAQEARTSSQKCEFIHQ
Protocol: (§1) All PDE proteins were expressed in baculoviral infected insect cells using standard methods [pFastBac, pFastBac Dual (Invitrogen), pIEX4 (Novagen)]. See Supplementary Table 1 for DNA sequences, construct boundaries, affinity tags, and expression vectors. HIS6 tagged PDE proteins were purified using Ni-NTA agarose (Qiagen) followed by size exclusion chromatography on a Superdex 200 column (GE Healthcare) in storage buffer (20 mM Tris-HCl, pH 7.5, 150 mM NaCl, 10% Glycerol). FLAG-tagged PDE proteins including the PDE6A/6B heterodimer were purified using anti-FLAG M2-agarose (Sigma-Aldrich), after purification through NiNTA column chromatography and eluted in storage buffer (50 mM Tris-HCl, pH 7.5, 150 mM NaCl, 10% Glycerol, 0.1 mg/ml Flag peptide). All purified proteins were stored at −80°C in small aliquots.
(§2) All PDE enzyme activities were measured with a yittrium silicate based scintillation proximity assay that detects radioactive nucleotide monophosphates but not cyclic monophosphates. Assays are conducted in a total volume of 50 μl in 384 well plates (3706, Corning): comprised of 24 μl enzyme, 1 μl compound, and 25 μl of cyclic nucleotide. The general assay buffer consists of 50 mM Tris-HCl (pH 7.5) and 0.1% (w/v) bovine serum albumin (Fatty Acid Free, Sigma-Aldrich). Enzyme concentrations, substrate concentrations, and various PDE-specific buffer additives are described in Supplementary Table 1. Compounds to be tested are diluted in pure dimethyl sulfoxide (DMSO) using 10-point concentration-response curves, and 1 μl is acoustically dispensed into assay plates using the Echo555 (LabCyte). Maximal compound concentration in the reaction mixture is either 10 or 100 μM. Compounds at the appropriate concentration are pre-incubated with either of the PDE enzymes for 30 min before the reaction is started by the addition of substrate ([8-^3H]-cAMP, 20.7 Ci/mmol or [8-^3H]-cGMP; 6.5 Ci/mmol, Perkin Elmer). Reactions are allowed to proceed for 60 min at room temperature before quenching. Next, reactions are stopped by the addition of 400 μg/per well SPA beads (RPNQ0150, Perkin Elmer) and a potent non-selective PDE inhibitor to quench the reaction. Bead bound radioactivity (product) is quantified 12 h later a Microbeta counter (Perkin Elmer). Data is normalized to % inhibition using standard methods ([Campbell et al., 2004]), and IC50 values were plotted using PRISM (GraphPad Software) using the 4 parameter logistic equation ([Campbell et al., 2004]). Data for potency values are expressed as the geometric mean and arithmetic standard deviation.

[2] = target: T2, Human PDE11A (Homo sapiens, UniProt Q9HCR9)
T2 construct: made in house; host or cells: baculovirus-infected insect cells
T2 sequence (Q9HCR9 whole entry): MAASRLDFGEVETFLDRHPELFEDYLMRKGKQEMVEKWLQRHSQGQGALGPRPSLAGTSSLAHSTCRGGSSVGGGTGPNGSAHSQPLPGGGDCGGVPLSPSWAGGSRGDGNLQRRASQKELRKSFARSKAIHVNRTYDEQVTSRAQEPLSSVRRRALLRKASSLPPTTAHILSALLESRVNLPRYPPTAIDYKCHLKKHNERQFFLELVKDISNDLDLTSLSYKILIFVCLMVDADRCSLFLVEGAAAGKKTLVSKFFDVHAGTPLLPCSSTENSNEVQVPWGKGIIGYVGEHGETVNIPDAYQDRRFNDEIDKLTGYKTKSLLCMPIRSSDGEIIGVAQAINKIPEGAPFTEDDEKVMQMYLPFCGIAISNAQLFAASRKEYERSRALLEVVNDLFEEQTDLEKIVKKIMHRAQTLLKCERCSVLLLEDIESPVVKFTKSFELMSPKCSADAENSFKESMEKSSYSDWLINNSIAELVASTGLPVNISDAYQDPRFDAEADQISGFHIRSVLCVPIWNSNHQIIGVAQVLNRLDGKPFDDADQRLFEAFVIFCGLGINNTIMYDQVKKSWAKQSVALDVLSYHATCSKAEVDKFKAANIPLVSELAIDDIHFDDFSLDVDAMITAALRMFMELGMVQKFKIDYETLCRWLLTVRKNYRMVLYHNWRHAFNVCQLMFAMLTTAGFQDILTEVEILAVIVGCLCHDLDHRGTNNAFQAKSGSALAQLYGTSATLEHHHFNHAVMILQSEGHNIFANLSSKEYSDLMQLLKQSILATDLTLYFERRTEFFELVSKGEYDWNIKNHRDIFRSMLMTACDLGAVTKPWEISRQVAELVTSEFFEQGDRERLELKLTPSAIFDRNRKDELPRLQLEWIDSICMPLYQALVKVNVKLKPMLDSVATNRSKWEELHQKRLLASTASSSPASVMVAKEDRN
Protocol: as §1, §2

[3] = target: T3, Human PDE1C (Homo sapiens, UniProt Q14123)
T3 construct: made in house; host or cells: baculovirus-infected insect cells
T3 sequence (Q14123 whole entry): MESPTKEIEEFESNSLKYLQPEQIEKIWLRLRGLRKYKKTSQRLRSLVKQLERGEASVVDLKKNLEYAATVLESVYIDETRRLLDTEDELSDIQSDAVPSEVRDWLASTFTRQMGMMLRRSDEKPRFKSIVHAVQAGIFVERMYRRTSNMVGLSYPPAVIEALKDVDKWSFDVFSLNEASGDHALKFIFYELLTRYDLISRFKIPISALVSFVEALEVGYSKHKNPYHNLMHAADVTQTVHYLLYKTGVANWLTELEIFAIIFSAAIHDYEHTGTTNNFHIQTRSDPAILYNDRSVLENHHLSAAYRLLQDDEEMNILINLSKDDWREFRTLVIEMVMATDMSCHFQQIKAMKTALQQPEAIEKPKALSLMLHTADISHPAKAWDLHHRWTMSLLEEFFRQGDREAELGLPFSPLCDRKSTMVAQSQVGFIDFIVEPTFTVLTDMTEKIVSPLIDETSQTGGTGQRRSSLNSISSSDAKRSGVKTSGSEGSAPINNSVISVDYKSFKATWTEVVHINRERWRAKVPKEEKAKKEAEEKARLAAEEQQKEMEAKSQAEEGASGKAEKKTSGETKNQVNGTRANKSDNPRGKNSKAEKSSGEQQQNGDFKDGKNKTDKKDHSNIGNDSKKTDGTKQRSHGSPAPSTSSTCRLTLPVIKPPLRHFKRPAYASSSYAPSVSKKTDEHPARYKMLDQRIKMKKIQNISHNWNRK
Protocol: as §1, §2

[4] = target: T4, Human PDE1B (Homo sapiens, UniProt Q01064)
T4 construct: made in house; host or cells: baculovirus-infected insect cells
T4 sequence (Q01064 whole entry): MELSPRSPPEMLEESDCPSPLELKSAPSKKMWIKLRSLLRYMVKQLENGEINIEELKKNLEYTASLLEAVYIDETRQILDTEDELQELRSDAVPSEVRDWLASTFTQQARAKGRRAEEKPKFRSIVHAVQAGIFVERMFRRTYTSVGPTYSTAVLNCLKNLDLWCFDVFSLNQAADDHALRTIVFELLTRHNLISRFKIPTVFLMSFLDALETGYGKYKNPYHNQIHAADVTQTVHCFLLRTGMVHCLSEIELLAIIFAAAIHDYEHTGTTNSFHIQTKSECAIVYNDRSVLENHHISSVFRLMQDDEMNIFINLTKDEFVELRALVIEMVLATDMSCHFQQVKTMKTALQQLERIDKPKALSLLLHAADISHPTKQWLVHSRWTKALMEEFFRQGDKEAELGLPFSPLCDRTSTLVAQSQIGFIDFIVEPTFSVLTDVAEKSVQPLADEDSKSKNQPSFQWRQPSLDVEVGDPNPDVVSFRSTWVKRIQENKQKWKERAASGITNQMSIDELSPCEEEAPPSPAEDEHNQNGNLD
Protocol: as §1, §2

[5] = target: T5, Human PDE7B (Homo sapiens, UniProt Q9NP56)
T5 construct: made in house; host or cells: baculovirus-infected insect cells
T5 sequence (Q9NP56 whole entry): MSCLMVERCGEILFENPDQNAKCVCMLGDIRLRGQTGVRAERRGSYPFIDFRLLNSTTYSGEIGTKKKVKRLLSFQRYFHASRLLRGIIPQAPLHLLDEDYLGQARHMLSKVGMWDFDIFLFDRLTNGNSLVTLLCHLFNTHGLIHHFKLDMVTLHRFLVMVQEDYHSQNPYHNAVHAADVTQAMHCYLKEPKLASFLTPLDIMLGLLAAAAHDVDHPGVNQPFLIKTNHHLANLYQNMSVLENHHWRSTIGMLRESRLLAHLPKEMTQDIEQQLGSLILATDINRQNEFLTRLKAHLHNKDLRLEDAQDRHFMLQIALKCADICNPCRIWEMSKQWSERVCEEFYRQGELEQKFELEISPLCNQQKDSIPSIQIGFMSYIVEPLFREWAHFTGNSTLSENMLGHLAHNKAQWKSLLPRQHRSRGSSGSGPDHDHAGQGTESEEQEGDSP
Protocol: as §1, §2

[6] = target: T6, Human PDE4D (Homo sapiens, UniProt Q08499)
T6 construct: made in house; host or cells: baculovirus-infected insect cells
T6 sequence (Q08499 whole entry): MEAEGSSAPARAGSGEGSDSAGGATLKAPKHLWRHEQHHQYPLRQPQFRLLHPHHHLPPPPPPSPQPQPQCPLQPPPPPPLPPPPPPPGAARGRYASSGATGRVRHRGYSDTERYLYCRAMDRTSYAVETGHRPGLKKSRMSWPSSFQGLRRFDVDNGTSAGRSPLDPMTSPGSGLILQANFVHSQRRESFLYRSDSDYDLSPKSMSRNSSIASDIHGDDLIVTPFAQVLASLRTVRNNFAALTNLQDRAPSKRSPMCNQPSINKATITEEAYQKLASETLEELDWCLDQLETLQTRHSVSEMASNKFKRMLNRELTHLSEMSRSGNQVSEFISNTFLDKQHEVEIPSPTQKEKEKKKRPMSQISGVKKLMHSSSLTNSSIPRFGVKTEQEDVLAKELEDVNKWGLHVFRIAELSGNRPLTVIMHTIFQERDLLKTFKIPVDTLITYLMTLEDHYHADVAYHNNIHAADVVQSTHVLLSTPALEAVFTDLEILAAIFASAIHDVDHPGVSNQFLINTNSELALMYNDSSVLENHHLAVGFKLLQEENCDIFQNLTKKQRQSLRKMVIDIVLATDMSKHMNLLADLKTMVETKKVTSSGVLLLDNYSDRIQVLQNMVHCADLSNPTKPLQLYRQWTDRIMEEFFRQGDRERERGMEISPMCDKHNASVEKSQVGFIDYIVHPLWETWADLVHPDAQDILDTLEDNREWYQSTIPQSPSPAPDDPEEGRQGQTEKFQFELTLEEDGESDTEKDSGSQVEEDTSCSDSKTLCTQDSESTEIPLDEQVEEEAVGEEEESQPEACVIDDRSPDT
Protocol: as §1, §2

An IC50 [1] of 1 nM, an IC50 [2] of 2400 nM and an IC50 [3] of 0.14 nM were found for O=c1c2nnc(C3(C4CC4)CC3)n2c2c(n1CC1CC1)CCCC2 [BTTQ, 1-[1,1′-bi(cyclopropyl)-1-yl]-5-(cyclopropylmethyl)-6,7,8,9-tetrahydro[1,2,4]triazolo[4,3-A]quinoxaline-4(5H)-one] in this work. The IC50 [4] was 0.5 nM and 0.45 nM, the IC50 [5] was 1600 nM and the IC50 [6] was 12000 nM.
